Experimental data: patent US20060142188A1 (Memory Pharmaceuticals Corporation, priority 2003, published 2006)

Key:
[1] = target: T1, rhesus monkey wild-type alpha-7 nACh receptor (Macaca mulatta, UniProt Q866A2); assay: Patch clamp net charge analysis of wild-type mkα7 in stably transfected QM7 cells; format: cell-based; conditions: wild-type alpha-7 clone #1, dose response curve, FIG. 8, normalized to 1 mM ACh
T1 construct: expressed in transfected cells
Protocol: (§1) QM 7 cells were routinely grown as monolayers in minimum essential medium 199 supplemented with 5% FBS, 2% tryptose phosphate broth, 1% DMSO, penicillin (100 IU/ml) and were passaged every 3-4 days. Transfections with either rhesus monkey wild type alpha7 nAchR (mkα7) or mutant alpha7 nAchR (mkα7/L270T) were performed using Lipofectamine PLUS Kit (Invitrogen). Twenty-four hours after the transfection, cells were split for stable selection with 1 mg/ml G418. Single colonies were isolated and propagated. The expression of mkα7/L270T was identified with FLIPR for fluorescence changes after addition of agonist. The expression of mkα7 was identified by radioligand binding to [^3H]-methyllycaconitine (Virginio, C., A., Giacometti, A. et al. (2002). Pharmacological properties of rat alpha7 nicotinic receptors expressed in native and recombinant cell systems, Eur, J. Pharmacol. 445(3), 153-161.)
Stably transfected QM7 cells grown on cover slips and expressing wild-type rhesus monkey alpha7 receptors were incubated at 37° C. in the presence of 5% CO2. Individual cover slips were removed for function analysis and placed in a recording buffer consisting of 140 mM NaCl, 5 mM KCl, 10 mM HEPES, 2 mM CaCl2, 1 mM MgCl2, 100 mM glucose titrated to pH 7.3 and perfused at 2-3 ml/min. […]

[2] = target: T2, mutant (L270T) alpha7 nAchR (Macaca mulatta, UniProt Q866A2, L270T); assay: FLIPR functional measurement of mutant mkα7/L270T stably expressed in QM7 cells; format: cell-based, rhesus monkey; conditions: Fluo-3AM, FIG. 7
T2 construct: expressed in transfected cells
Protocol: as §1
Cells were seeded into 96 well black wall and clear-bottom plates (Costar) coated with poly-D-lysine at a density of 20,000 cells per well and cultured overnight. […] The fluorescence was monitored (λex=488 […]) for three minutes immediately after the compound addition. The relative fluorescence unit (RFU) was measured as peak fluorescence intensity minus basal fluorescence intensity. […]

| EC50 [1] [µM] | EC50 compared with nicotine [2] | SMILES |
| --- | --- | --- |
| 38 | – | CC(=O)OCC[N+](C)(C)C [acetylcholine] |
| – | better or comparable to that of nicotine | COc1ccc(/C=C2\CCCN=C2c2cccnc2)c(OC)c1 [GTS-21] |
